# Data reported in patent US12077503B2, “Substituted cyclic amides and their use as herbicides” (FMC CORPORATION, priority 2015, dated 2024).
# Like-named read-outs stand apart in the source and are kept apart here.
# What was measured:
# Type in all cases: in vivo
# [1] = test system: ragweed (common ragweed, Ambrosia elatior); assay: Test A postemergence; conditions: Ambrosia artemisiifolia, post-emergence, 240 h, 125 g ai/ha, Postemergence; visual injury after approximately 10 d; 0 to 100 scale where 0 is no effect and 100 is complete control; read-out: Plant response rating, Ragweed
# Method in brief: (§1)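 Seeded soil received test chemicals as a preemergence directed spray, and seedlings at one to two leaves, 2–10 cm tall, received them postemergence, in a non-phytotoxic, surfactant-containing solvent mixture. Pots were held in a greenhouse for approximately 10 d, then rated for injury from 0, no effect, to 100, complete control.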
# Kochia (Kochia scoparia) [2] = assay: Test A postemergence; conditions: Bassia scoparia, post-emergence, 240 h, 125 g ai/ha, Postemergence; visual injury after approximately 10 d; 0 to 100 scale where 0 is no effect and 100 is complete control; read-out: Plant response rating, Kochia
# Method in brief: as §1
# [3] = test system: giant foxtail (Setaria faberii); assay: Test A postemergence; conditions: Setaria faberi, post-emergence, 240 h, 125 g ai/ha, Postemergence; visual injury after approximately 10 d; 0 to 100 scale where 0 is no effect and 100 is complete control; read-out: Plant response rating, Foxtail, Giant
# Method in brief: as §1
# [4] = test system: blackgrass (Alopecurus myosuroides); assay: Test A postemergence; conditions: Alopecurus myosuroides, post-emergence, 240 h, 125 g ai/ha, Postemergence; visual injury after approximately 10 d; 0 to 100 scale where 0 is no effect and 100 is complete control; read-out: Plant response rating, Blackgrass
# Method in brief: as §1
# [5] = test system: barnyardgrass (Echinochloa crus-galli); assay: Test A postemergence; conditions: Echinochloa crus-galli, post-emergence, 240 h, 125 g ai/ha, Postemergence; visual injury after approximately 10 d; 0 to 100 scale where 0 is no effect and 100 is complete control; read-out: Plant response rating, Barnyardgrass
# Method in brief: as §1
# [6] = test system: ragweed (common ragweed, Ambrosia elatior); assay: Test A preemergence; conditions: Ambrosia artemisiifolia, pre-emergence, 240 h; for pest or weed control at 500 g/ha: 500 g ai/ha, preemergence, visual injury rating about 10 d after treatment, 0 to 100 scale (0 no effect, 100 complete control), read-out: Ragweed plant response rating
# Method in brief: as §1
# Kochia (Kochia scoparia) [7] = assay: Test A preemergence; conditions: Bassia scoparia, pre-emergence, 240 h, preemergence, read-out: Kochia plant response rating; for pest or weed control at 125 g/ha: 125 g ai/ha, 0 to 100 scale where 0 is no effect and 100 is complete control; for pest or weed control at 500 g/ha: 500 g ai/ha, visual injury rating about 10 d after treatment, 0 to 100 scale (0 no effect, 100 complete control)
# Method in brief: as §1
# [8] = test system: giant foxtail (Setaria faberii); assay: Test A preemergence; conditions: Setaria faberi, pre-emergence, 240 h; for pest or weed control at 125 g/ha: 125 g ai/ha; for pest or weed control at 500 g/ha: 500 g ai/ha, visual injury rating about 10 d after treatment, 0 to 100 scale (0 no effect, 100 complete control)
# Method in brief: as §1
# [9] = test system: pigweed (Amaranthus retroflexus); assay: Test A preemergence; conditions: Amaranthus retroflexus, pre-emergence, 240 h; for pest or weed control at 125 g/ha: 125 g ai/ha; for pest or weed control at 500 g/ha: 500 g ai/ha, visual injury rating about 10 d after treatment, 0 to 100 scale (0 no effect, 100 complete control)
# [10] = test system: barnyardgrass (Echinochloa crus-galli); assay: Test A preemergence; conditions: Echinochloa crus-galli, pre-emergence, 240 h; for pest or weed control at 125 g/ha: 125 g ai/ha; for pest or weed control at 500 g/ha: 500 g ai/ha, visual injury rating about 10 d after treatment, 0 to 100 scale (0 no effect, 100 complete control)
# Method in brief: as §1
# [11] = test system: ryegrass, Italian (Italian ryegrass, Lolium multiflorum); assay: Test A preemergence; conditions: Lolium multiflorum, pre-emergence, 240 h; for pest or weed control at 500 g/ha: 500 g ai/ha, preemergence, visual injury rating about 10 d after treatment, 0 to 100 scale (0 no effect, 100 complete control), read-out: Ryegrass, Italian plant response rating
# Method in brief: as §1
# [12] = test system: sedge, umbrella (small-flower umbrella sedge, Cyperus difformis); assay: Test B flooded paddy test; conditions: Cyperus difformis, Flood, 250 g ai/ha, read-out: Sedge, Umbrella plant response rating
# Method in brief: (§2)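 Evaluation by eye, against controls, occurred 13–15 d post-treatment in a greenhouse, using a 0 (no effect) to 100 (complete control) scale. Application was into the paddy water, 3 cm deep over the soil, on 2-leaf plants.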
# rice (Oryra sativa) = assay: Test B flooded paddy test; conditions: Oryza sativa, Flood, 250 g ai/ha; scale of 0 to 100 where 0 is no effect and 100 is complete control; read-out: Rice plant response rating
# Method in brief: as §2
# [13] = test system: barnyardgrass (Echinochloa crus-galli); assay: Test B flooded paddy test; conditions: Echinochloa crus-galli, Flood, 250 g ai/ha; scale of 0 to 100 where 0 is no effect and 100 is complete control; read-out: Barnyardgrass plant response rating
# Method in brief: as §2
# [14] = test system: ducksalad (Heteranthera limosa); assay: Test B flooded paddy test; conditions: Heteranthera limosa, Flood, 250 g ai/ha; scale of 0 to 100 where 0 is no effect and 100 is complete control; read-out: Ducksalad plant response rating
# Method in brief: as §2
# [15] = preemergence, 0 to 100 scale where 0 is no effect and 100 is complete control, read-out: Foxtail, Giant plant response rating
# [16] = preemergence, read-out: Foxtail, Giant plant response rating
# [17] = preemergence, 0 to 100 scale where 0 is no effect and 100 is complete control, read-out: Pigweed plant response rating
# [18] = preemergence, read-out: Pigweed plant response rating
# [19] = preemergence, 0 to 100 scale where 0 is no effect and 100 is complete control, read-out: Barnyardgrass plant response rating
# [20] = preemergence, read-out: Barnyardgrass plant response rating
# [21] = scale of 0 to 100 where 0 is no effect and 100 is complete control
SMILES,pest or weed control at 125 g/ha [1] [%],pest or weed control at 125 g/ha (Kochia (Kochia scoparia) [2]) [%],pest or weed control at 125 g/ha [3] [%],pest or weed control at 125 g/ha [4] [%],pest or weed control at 125 g/ha [5] [%],pest or weed control at 500 g/ha [6] [%],pest or weed control at 125 g/ha (Kochia (Kochia scoparia) [7]) [%],pest or weed control at 500 g/ha (Kochia (Kochia scoparia) [7]) [%],"pest or weed control at 125 g/ha [8, 15] [%]","pest or weed control at 500 g/ha [8, 16] [%]","pest or weed control at 125 g/ha [9, 17] [%]","pest or weed control at 500 g/ha [9, 18] [%]","pest or weed control at 125 g/ha [10, 19] [%]","pest or weed control at 500 g/ha [10, 20] [%]",pest or weed control at 500 g/ha [11] [%],"pest or weed control at 250 g/ha [12, 21] [%]",pest or weed control at 250 g/ha (rice (Oryra sativa)) [%],pest or weed control at 250 g/ha [13] [%],pest or weed control at 250 g/ha [14] [%],other results
CCc1ccccc1NC(=O)[C@H]1C(=O)N(C)C[C@@H]1c1ccc(C(F)(F)F)cc1 [Compound 935],0,30,90,60,70,30,70,80,90,90,20,20,70,90,50,0,0,0,70,
CN1C[C@H](c2ccc(C(F)(F)F)cc2)[C@@H](C(=O)Nc2cccc(F)c2Cl)C1=O [Compound 938],0,40,80,40,80,20,70,80,90,90,80,90,90,90,30,0,0,40,60,
O=C1NC[C@H](c2cccc(C(F)(F)F)n2)[C@H]1C(=O)Nc1ccccc1F [Compound 940],0,0,0,0,10,0,0,0,40,90,0,0,30,70,0,0,0,0,0,
CN1C[C@H](c2cc(F)cc(C(F)(F)F)c2)[C@@H](C(=O)Nc2cccc(Cl)c2F)C1=O [Compound 995],0,0,80,50,60,20,,0,,90,,30,,90,50,,0,25,70,"pest or weed control at 125 g/ha ([6]; 125 g ai/ha, Preemergence, visual injury rating after approximately 10 d, read-out: Ragweed plant response rating (0 to 100 scale, 0 is no effect, 100 is complete control)): 0%; pest or weed control at 125 g/ha ([8]; Preemergence, visual injury rating after approximately 10 d, read-out: Foxtail, Giant plant response rating (0 to 100 scale, 0 is no effect, 100 is complete control)): 90%; pest or weed control at 125 g/ha ([9]; Preemergence, visual injury rating after approximately 10 d, read-out: Pigweed plant response rating (0 to 100 scale, 0 is no effect, 100 is complete control)): 20%; pest or weed control at 125 g/ha ([10]; Preemergence, visual injury rating after approximately 10 d, read-out: Barnyardgrass plant response rating (0 to 100 scale, 0 is no effect, 100 is complete control)): 80%; pest or weed control at 125 g/ha ([11]; 125 g ai/ha, Preemergence, visual injury rating after approximately 10 d, read-out: Ryegrass, Italian plant response rating (0 to 100 scale, 0 is no effect, 100 is complete control)): 20%; pest or weed control at 250 g/ha ([12]; 0 to 100 scale where 0 is no effect and 100 is complete control): 30%"
